Data reported in PMC7475166 (Journal of medicinal chemistry, 2015).

Legend:
[1] = biological target: Bcr-Abl^T315I in Ba/F3 cells (Homo sapiens, UniProt P00519+P11274, T315I); settings: 500 nM, 3 h, immunoblot
[2] = biological target: Bcr-Abl^WT in Ba/F3 cells (Homo sapiens, UniProt P00519+P11274); settings: 500 nM, 3 h, immunoblot
[3] = system: parental Ba/F3 cells that do not express Bcr-Abl; test: Counterscreen against parental Ba/F3 cells; type: cell-based
CSF1R = CSF1R (Homo sapiens, UniProt P07333); test: SelectScreen Kinase Profiling; type: biochemical; settings: read-out: inhibition of CSF1R
Sequence of CSF1R (P07333 20-972): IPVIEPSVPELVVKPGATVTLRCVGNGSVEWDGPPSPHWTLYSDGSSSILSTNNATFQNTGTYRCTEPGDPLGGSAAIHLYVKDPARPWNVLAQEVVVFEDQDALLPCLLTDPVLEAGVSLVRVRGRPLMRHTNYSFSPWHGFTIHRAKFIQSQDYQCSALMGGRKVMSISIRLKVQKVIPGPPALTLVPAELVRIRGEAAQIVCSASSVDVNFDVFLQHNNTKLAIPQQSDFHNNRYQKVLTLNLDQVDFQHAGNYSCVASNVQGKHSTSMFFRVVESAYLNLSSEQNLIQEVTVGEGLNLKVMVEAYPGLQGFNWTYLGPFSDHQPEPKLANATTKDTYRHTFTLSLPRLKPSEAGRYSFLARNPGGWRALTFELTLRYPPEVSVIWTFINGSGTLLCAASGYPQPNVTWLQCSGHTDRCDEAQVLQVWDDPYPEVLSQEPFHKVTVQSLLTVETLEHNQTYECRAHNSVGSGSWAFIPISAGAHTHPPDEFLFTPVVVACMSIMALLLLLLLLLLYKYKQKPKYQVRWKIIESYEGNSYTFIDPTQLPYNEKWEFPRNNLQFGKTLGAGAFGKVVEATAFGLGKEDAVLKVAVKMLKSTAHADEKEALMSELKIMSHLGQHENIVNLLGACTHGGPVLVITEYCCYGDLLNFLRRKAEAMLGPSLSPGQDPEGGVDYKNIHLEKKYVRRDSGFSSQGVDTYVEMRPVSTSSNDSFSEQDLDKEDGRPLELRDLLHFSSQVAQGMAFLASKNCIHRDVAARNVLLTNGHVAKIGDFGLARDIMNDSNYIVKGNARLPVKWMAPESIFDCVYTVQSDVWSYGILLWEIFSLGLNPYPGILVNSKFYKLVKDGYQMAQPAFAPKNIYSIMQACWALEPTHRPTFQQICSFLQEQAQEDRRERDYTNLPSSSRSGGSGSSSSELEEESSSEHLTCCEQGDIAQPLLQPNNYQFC

Yes1 = Yes1 (Homo sapiens, UniProt P07947); test: SelectScreen Kinase Profiling; type: biochemical; settings: read-out: inhibition of Yes1
Sequence of Yes1 (P07947 whole entry): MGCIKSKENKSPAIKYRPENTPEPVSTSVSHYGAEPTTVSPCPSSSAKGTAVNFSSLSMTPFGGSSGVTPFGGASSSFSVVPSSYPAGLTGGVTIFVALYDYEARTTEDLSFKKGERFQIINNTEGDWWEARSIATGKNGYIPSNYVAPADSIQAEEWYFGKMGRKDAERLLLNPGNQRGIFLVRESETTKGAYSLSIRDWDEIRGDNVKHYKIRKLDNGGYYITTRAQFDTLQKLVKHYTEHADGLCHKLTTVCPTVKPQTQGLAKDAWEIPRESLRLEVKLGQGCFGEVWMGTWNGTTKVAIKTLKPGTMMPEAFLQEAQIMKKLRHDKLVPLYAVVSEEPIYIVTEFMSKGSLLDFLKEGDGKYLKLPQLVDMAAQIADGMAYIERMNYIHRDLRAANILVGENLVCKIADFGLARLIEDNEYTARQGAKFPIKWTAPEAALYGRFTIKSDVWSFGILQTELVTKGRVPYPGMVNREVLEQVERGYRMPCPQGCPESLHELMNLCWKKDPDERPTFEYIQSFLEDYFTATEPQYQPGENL

Blk = Blk (Homo sapiens, UniProt P51451); test: SelectScreen Kinase Profiling; type: biochemical
Sequence of Blk (P51451 whole entry): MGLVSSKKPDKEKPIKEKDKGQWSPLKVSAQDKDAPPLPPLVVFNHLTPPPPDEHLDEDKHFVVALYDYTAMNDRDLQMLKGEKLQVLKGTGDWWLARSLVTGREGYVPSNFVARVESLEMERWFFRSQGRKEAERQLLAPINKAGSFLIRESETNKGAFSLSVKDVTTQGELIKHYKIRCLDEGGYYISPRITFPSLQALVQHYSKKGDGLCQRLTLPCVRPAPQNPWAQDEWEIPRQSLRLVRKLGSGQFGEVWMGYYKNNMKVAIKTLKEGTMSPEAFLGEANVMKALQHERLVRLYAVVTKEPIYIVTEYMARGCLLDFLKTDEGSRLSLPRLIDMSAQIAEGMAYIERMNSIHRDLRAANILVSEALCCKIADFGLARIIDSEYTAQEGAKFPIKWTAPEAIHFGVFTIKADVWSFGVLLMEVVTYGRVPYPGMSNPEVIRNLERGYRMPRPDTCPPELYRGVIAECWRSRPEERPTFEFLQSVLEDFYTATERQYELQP

MUSK = biological target: T1, MUSK (Homo sapiens, UniProt O15146); test: SelectScreen Kinase Profiling; type: biochemical
T1 sequence (O15146 24-869): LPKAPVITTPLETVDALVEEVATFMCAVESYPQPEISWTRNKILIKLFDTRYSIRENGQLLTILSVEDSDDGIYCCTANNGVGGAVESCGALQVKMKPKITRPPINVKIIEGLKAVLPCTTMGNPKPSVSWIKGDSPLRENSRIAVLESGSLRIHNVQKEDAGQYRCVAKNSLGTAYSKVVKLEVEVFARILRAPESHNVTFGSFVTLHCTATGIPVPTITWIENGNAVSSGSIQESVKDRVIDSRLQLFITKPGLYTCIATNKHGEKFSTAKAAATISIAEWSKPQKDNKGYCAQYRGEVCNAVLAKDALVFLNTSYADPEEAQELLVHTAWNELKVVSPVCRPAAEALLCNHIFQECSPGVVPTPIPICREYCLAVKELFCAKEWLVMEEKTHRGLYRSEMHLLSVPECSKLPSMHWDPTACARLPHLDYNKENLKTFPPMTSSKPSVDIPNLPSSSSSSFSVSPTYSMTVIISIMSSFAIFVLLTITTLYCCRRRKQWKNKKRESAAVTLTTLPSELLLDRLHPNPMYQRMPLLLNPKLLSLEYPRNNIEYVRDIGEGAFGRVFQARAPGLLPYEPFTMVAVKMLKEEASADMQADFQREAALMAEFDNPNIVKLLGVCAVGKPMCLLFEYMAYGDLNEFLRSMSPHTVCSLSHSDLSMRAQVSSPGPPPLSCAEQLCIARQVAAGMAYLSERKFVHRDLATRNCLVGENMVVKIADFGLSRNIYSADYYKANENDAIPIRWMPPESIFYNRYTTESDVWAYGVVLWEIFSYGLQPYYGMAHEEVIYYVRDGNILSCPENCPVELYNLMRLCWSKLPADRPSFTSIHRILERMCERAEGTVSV

TrkA = TrkA (Homo sapiens, UniProt P04629); test: SelectScreen Kinase Profiling; type: biochemical
Sequence of TrkA (P04629 33-796): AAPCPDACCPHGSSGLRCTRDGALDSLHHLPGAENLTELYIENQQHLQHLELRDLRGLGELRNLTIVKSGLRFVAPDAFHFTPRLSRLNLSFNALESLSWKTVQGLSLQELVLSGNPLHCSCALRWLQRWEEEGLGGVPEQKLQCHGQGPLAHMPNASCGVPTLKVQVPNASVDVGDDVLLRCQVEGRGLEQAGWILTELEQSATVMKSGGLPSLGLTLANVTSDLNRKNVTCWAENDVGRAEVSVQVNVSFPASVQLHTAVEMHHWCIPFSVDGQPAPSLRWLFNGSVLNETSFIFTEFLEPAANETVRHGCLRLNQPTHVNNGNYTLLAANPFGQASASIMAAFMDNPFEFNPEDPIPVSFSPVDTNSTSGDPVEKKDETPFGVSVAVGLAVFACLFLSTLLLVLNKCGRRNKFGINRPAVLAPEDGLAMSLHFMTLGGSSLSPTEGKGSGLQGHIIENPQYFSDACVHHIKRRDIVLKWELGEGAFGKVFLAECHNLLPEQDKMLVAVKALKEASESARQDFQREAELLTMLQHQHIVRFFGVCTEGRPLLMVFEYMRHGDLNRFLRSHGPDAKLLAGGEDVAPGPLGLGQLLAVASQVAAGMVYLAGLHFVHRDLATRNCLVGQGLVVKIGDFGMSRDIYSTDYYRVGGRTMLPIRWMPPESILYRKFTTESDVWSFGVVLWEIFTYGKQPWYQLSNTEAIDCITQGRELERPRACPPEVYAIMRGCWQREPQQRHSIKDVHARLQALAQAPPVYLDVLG

[4] = system: diverse set of 66 kinases; test: SelectScreen Kinase Profiling, whole panel; type: biochemical; settings: 50 nM

## CC(C)n1nc(C#Cc2cccc(O)c2)c2c(N)ncnc21 [Compound 3, 3-((4-Amino-1-isopropyl-1H-pyrazolo[3,4-d]pyrimidin-3-yl)-ethynyl)phenol]
[1]
  phosphorylation of Abl (Tyr412) and STAT5 (Tyr694): only partially inhibited
[2]
  phosphorylation of Abl (Tyr412) and STAT5 (Tyr694): only partially inhibited

## CC(C)n1nc(C#Cc2cccc(NC(=O)c3cccc(C(F)(F)F)c3)c2)c2c(N)ncnc21 [Compound 15, N-(3-((4-Amino-1-isopropyl-1H-pyrazolo[3,4-d]pyrimidin-3-yl)-ethynyl)phenyl)-3-(trifluoromethyl)benzamide]
[3]
  window between IC50 values against parental Ba/F3 cells and those expressing Bcr-Abl: over 100 fold
[3]; at concentrations below 1 μM
  inhibition of proliferation of parental Ba/F3 cells: do not inhibit
CSF1R
  inhibition at 0.05 µM: 40 to 80%
Yes1
  inhibition at 0.05 µM: 40 to 80%
Blk; 50 nM
  inhibition of Blk: not significantly affected
MUSK; 50 nM
  inhibition of MUSK: not significantly affected
TrkA; 50 nM
  inhibition of TrkA: not significantly affected
[4]
  number of kinases potently inhibited (>80% inhibition): 9
[1]
  phosphorylation of Abl (Tyr412) and STAT5 (Tyr694): abolished
[2]
  phosphorylation of Abl (Tyr412) and STAT5 (Tyr694): abolished

## Cc1ccc(C(=O)Nc2ccc(CN3CCN(C)CC3)c(C(F)(F)F)c2)cc1C#Cc1cnc2cccnn12 [Ponatinib, reference compound]
CSF1R
  inhibition at 0.05 µM: > 80%
Yes1
  inhibition at 0.05 µM: > 80%
Blk; read-out: inhibition of Blk
  inhibition at 0.05 µM: > 80%
MUSK; read-out: inhibition of MUSK
  inhibition at 0.05 µM: > 80%
TrkA; read-out: inhibition of TrkA
  inhibition at 0.05 µM: > 80%
